This test addresses T1, hCRTH2 (Homo sapiens, UniProt Q9Y5Y4).
T1 construct: expressed in transfected cells; host or cells: HEK (human embryonic kidney) cells expressing hCRTH2; membrane preparation
T1 sequence (Q9Y5Y4 1-395): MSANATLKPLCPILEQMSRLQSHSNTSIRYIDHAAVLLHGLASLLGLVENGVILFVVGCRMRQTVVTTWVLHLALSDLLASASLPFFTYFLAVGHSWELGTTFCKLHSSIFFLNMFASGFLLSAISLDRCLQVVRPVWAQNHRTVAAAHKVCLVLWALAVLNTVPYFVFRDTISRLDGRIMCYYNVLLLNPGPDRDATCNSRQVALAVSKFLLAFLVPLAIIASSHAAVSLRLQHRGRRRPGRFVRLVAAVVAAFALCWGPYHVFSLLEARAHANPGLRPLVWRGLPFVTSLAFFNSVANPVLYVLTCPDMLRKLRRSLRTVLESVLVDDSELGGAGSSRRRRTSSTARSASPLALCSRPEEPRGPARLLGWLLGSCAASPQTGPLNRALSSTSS
The test can be described thus: Radioligand binding assay ([3H]PGD2 competition, HEK-hCRTH2 membranes). To be noted: [3H]PGD2 binding. Here is the method: Biological Assays Radioligand Binding Assay.
Radioligand binding assays were performed at room temperature in 50 mM Tris-HCl pH 7.4, 1 mM EDTA containing 2 mM MnCl2 and 3.0 nM [^3H]PGD2 (New England Nuclear, Boston, Mass.) (171 Ci mmol^−1), in a final volume of 0.2 mL. Competing ligands were diluted in dimethylsulfoxide (Me2SO) that was kept constant at 1% (v/v) of the final incubation volume. The reaction was initiated by the addition of 8-20 μg of membrane protein prepared from a human embryonic kidney (HEK)-hCRTH2 cell line. Total and non-specific binding were determined in the absence and the presence of 10 μM PGD2, respectively. […] The reaction was routinely conducted for 60 min at room temperature and terminated by rapid filtration through prewetted (0.3% polyethyleneimine) 96-well printed Filtermate™ (Wallac) using a Tomtec® harvester (Hamden, Conn.). After washing with cold buffer, the filter was dried for 2 minutes in microwave, and Meltilex Scintillator sheet (Wallac) was melted on for 2 min. The radioactivity was measured with Betaplate model 1205 (Wallac).

Results on 29 molecules are retold here after patent US9469615B2, “Quinoxalines and AZA-quinoxalines as CRTH2 receptor modulators” (Merck Sharp & Dohme Corp., priority 2010, dated 2016).

For the molecule `O=C(O)CCCCc1nc2cc(NC(=O)Cc3ccc(C(F)(F)F)cc3)ccc2nc1-c1ccccc1` [11F, 5-[3-phenyl-7-({[4-(trifluoromethyl)phenyl]acetyl}amino)quinoxalin-2-yl]pentanoic acid], the Ki was 201 to 700 nM (rated A-E (Table A)) and 223 nM (values in text). In turn, `C[C@H](NC(=O)c1cnc2nc(-c3ccccc3)c(CCCCC(=O)O)nc2c1)c1ccccc1` [14C, 5-(3-phenyl-7-{[(1S)-1-phenylethyl]carbamoyl}pyrido[2,3-b]pyrazin-2-yl)pentanoic acid] registered a Ki (rated A-E (Table A)) of 20.1 to 200 nM. On the same count and under the same terms, with `O=C(O)CCCCc1nc2cc(C(=O)NCc3ccc(Cl)cc3)cnc2nc1-c1ccccc1` [14D, 5-{7-[(4-chlorobenzyl)-carbamoyl]-3-phenylpyrido[2,3-b]pyrazin-2-yl} pentanoic acid] the figure was 2.1 to 20 nM; with `O=C(O)CCCCc1nc2cc(C(=O)NC3(c4ccccc4)CC3)cnc2nc1-c1ccccc1` [14E, 5-{3-phenyl-7-[(1-phenylcyclopropyl)carbamoyl]-pyrido[2,3-b]pyrazin-2-yl}pentanoic acid], 20.1 to 200 nM. In turn, `C[C@@H](NC(=O)c1cnc2nc(-c3ccccc3)c(CCCCC(=O)O)nc2c1)c1ccccc1` [14F, 5-(3-phenyl-7-{[(1R)-1-phenylethyl]carbamoyl}pyrido[2,3-b]pyrazin-2-yl)pentanoic acid] yielded a Ki (rated A-E (Table A)) of 20.1 to 200 nM. Still for that read-out and setting: with `O=C(O)CCCCc1nc2cc(C(=O)N3CCN(c4ccccc4)CC3)cnc2nc1-c1ccccc1` [14G, 5-{3-phenyl-7-[(4-phenylpiperazin-1-yl)carbonyl]pyrido [2,3-b]pyrazin-2-yl}pentanoic acid] the figure was 0.1 to 2 nM; with `CC(NC(=O)c1cnc2nc(-c3ccccc3)c(CCCCC(=O)O)nc2c1)c1ccncc1` (stereo not shown) [14H, 5-{3-phenyl-7-[(1-pyridin-4-ylethyl)carbamoyl]pyrido[2,3-b]pyrazin-2-yl} pentanoic acid], 20.1 to 200 nM; with `C[C@@H](NC(=O)c1ccc2nc(-c3ccccc3)c(CCCCC(=O)O)nc2c1)c1ccccc1` [15A, 5-(3-phenyl-7-{[(1R)-1-phenylethyl]carbamoyl}quinoxalin-2-yl) pentanoic acid], 2.1 to 20 nM. As for `O=C(O)CCCCc1nc2cc(C(=O)Nc3ccccc3)ccc2nc1-c1ccccc1` [15AA, 5-[3-phenyl-7-(phenylcarbamoyl)quinoxalin-2-yl] pentanoic acid], for the setting “rated A-E (Table A)”, the Ki lay within 20.1 to 200 nM.

As to `O=C(O)CCCCc1nc2cc(C(=O)NCc3ccccc3F)ccc2nc1-c1ccccc1` [15AB, 5-{7-[(2-fluorobenzyl)carbamoyl]-3-phenylquinoxalin-2-yl}pentanoic acid], the Ki (rated A-E (Table A)) is 0.1 to 2 nM. For `O=C(O)CCCCc1nc2cc(C(=O)NCc3cccc(F)c3)ccc2nc1-c1ccccc1` [15AC, 5-{7-[(3-fluorobenzyl)carbamoyl]-3-phenylquinoxalin-2-yl}pentanoic acid], the Ki (rated A-E (Table A)) was in the range of 0.1 to 2 nM. On the same count and under the same terms, with `O=C(O)CCCCc1nc2cc(C(=O)NCc3ccc(F)cc3)ccc2nc1-c1ccccc1` [15AD, 5-{7-[(4-fluorobenzyl)carbamoyl]-3-phenylquinoxalin-2-yl}pentanoic acid] the figure was 2.1 to 20 nM.

The molecule `O=C(O)CCCCc1nc2cc(C(=O)NC3(c4ccccc4)CC3)ccc2nc1-c1ccccc1` [15AE, 5-{3-phenyl-7-[(1-phenylcyclopropyl)carbamoyl]quinoxalin-2-yl}pentanoic acid] registered an inhibition constant Ki (rated A-E (Table A)) of 2.1 to 20 nM. Under “rated A-E (Table A)”, `O=C(O)CCCCc1nc2cc(C(=O)NCc3ccccn3)ccc2nc1-c1ccccc1` [15AF, 5-{3-phenyl-7-[(pyridin-2-ylmethyl)carbamoyl]quinoxalin-2-yl} pentanoic acid] returned an inhibition constant Ki of 2.1 to 20 nM. Same read-out and setting: under `O=C(O)CCCCc1nc2cc(C(=O)NCc3cccnc3)ccc2nc1-c1ccccc1` [15AG, 5-{3-phenyl-7-[(pyridin-3-ylmethyl)carbamoyl]quinoxalin-2-yl} pentanoic acid] stands 2.1 to 20 nM; under `O=C(O)CCCCc1nc2cc(C(=O)NCc3ccncc3)ccc2nc1-c1ccccc1` [15AH, 5-{3-phenyl-7-[(pyridin-4-ylmethyl)carbamoyl]quinoxalin-2-yl} pentanoic acid], 20.1 to 200 nM; under `O=C(O)CCCCc1nc2cc(C(=O)N3CCCCC3c3ccccc3)ccc2nc1-c1ccccc1` (stereo not shown) [15AJ, 5-{3-phenyl-7-[(2-phenylpiperidin-1-yl)carbonyl]quinoxalin-2-yl}pentanoic acid], 2.1 to 20 nM. On the same count and under the same terms, with `O=C(O)CCCCc1nc2cc(C(=O)N3CCC(c4ccccc4)C3)ccc2nc1-c1ccccc1` (stereo not shown) [15AK, 5-{3-phenyl-7-[(3-phenylpyrrolidin-1-yl)carbonyl]quinoxalin-2-yl}pentanoic acid] the figure was 2.1 to 20 nM; with `O=C(O)CCCCc1nc2cc(C(=O)N3CCCC3c3ccccc3)ccc2nc1-c1ccccc1` (stereo not shown) [15AL, 5-{3-phenyl-7-[(2-phenylpyrrolidin-1-yl)carbonyl]quinoxalin-2-yl}pentanoic acid], 0.1 to 2 nM; with `O=C(O)CCCCc1nc2cc(C(=O)NC3(c4ccccc4)CCC3)ccc2nc1-c1ccccc1` [15AM, 5-{3-phenyl-7-[(1-phenylcyclobutyl)carbamoyl]quinoxalin-2-yl}pentanoic acid], 2.1 to 20 nM.

Under “rated A-E (Table A)”, `O=C(O)CCCCc1nc2cc(C(=O)N3CCN(c4ccccc4)CC3)ccc2nc1-c1ccccc1` [15AN, 5-{3-phenyl-7-[(4-phenylpiperazin-1-yl)carbonyl]quinoxalin-2-yl}pentanoic acid] showed an inhibition constant Ki of 2.1 to 20 nM.

`O=C(O)CCCCc1nc2cc(C(=O)N3CCc4ccccc4C3)ccc2nc1-c1ccccc1` [15AP, 5-[7-(3,4-dihydroisoquinolin-2(1H)-ylcarbonyl)-3-phenylquinoxalin-2-yl]pentanoic acid] had a Ki (rated A-E (Table A)) of 2.1 to 20 nM. Consider `O=C(O)CCCCc1nc2cc(C(=O)NC3c4ccccc4CC3O)ccc2nc1-c1ccccc1` (stereo not shown) [15AQ, 5-{7-[(2-hydroxy-2,3-dihydro-1H-inden-1-yl)carbamoyl]-3-phenylquinoxalin-2-yl}pentanoic acid], for which the Ki (rated A-E (Table A)) is 2.1 to 20 nM.

With `O=C(O)CCCCc1nc2cc(C(=O)NC3CCCc4ccccc43)ccc2nc1-c1ccccc1` (stereo not shown) [15AR, 5-[3-phenyl-7-(1,2,3,4-tetrahydronaphthalen-1-ylcarbamoyl)quinoxalin-2-yl]pentanoic acid], the inhibition constant Ki (rated A-E (Table A)) fell in the range of 0.1 to 2 nM and the Ki (values in text) is 1.6 nM. `CCNC(=O)c1ccc2nc(-c3ccccc3)c(CCCCC(=O)O)nc2c1` [15AS, 5-[7-(ethylcarbamoyl)-3-phenylquinoxalin-2-yl]pentanoic acid] came in with a Ki (rated A-E (Table A)) of 2.1 to 20 nM. On the same count and under the same terms, with `O=C(O)CCCCc1nc2cc(C(=O)NC3CCc4ccccc43)ccc2nc1-c1ccccc1` (stereo not shown) [15AT, 5-[7-(2,3-dihydro-1H-inden-1-ylcarbamoyl)-3-phenylquinoxalin-2-yl]pentanoic acid] the figure was 0.1 to 2 nM; with `COc1ccc(C(C)NC(=O)c2ccc3nc(-c4ccccc4)c(CCCCC(=O)O)nc3c2)cc1` (stereo not shown) [15AU, 5-(7-{[1-(4-methoxyphenyl)ethyl]carbamoyl}-3-phenyl-quinoxalin-2-yl) pentanoic acid], 2.1 to 20 nM; with `O=C(O)CCCCc1nc2cc(C(=O)NCc3ccc(OC(F)(F)F)cc3)ccc2nc1-c1ccccc1` [15AV, 5-(3-phenyl-7-{[4-(trifluoromethoxy)benzyl]carbamoyl}quinoxalin-2-yl)pentanoic acid], 0.1 to 2 nM. The same measure, in the same setting: with `Cc1ccc(CNC(=O)c2ccc3nc(-c4ccccc4)c(CCCCC(=O)O)nc3c2)cc1` [15AW, 5-{7-[(4-methylbenzyl)carbamoyl]-3-phenylquinoxalin-2-yl}pentanoic acid] the figure was 0.1 to 2 nM.

As a reminder, the Ki is the dissociation constant of the complex between target and ligand, obtained from inhibition or displacement. Higher therefore signals weaker binding.
